Reference: patent US11708368B2, “Crystal form of ethyl (S)-3-(8-bromo-1-methyl-6-(pyridin-2-yl)-4H-benzo[f]imidazo[1,2-a][1,4]diazepin-4-yl)propanoate hydrochloride” (JIANGSU NHWALUOKANG PHARMACEUTICAL RESEARCH AND DEVELOPMENT …, priority 2018, dated 2023)

Columns and labels:
[1] = Accelerated stability test (40° C., RH75%), change in degradation product CNS-7054; type: physicochemical; conditions: for CNS-7054 increase, accelerated experiment (40° C., RH75%): in 1 month, sulfonate of the benzodiazepine derivative; for Change in CNS-7054, Accelerated experiment (40° C., RH75%): 6 months, after packaging, degradation product CNS-7054
Procedure: (§1) The compound of Formula I prepared in the above examples were selected, and placed under the conditions of 40° C., RH75% and 25° C., RH60% for an accelerated stability test and a long-term stability test after packaging. The changes in the degradation product (CNS-7054) in these compounds in 6 months were observed, and the results are shown in Table 13 below.
(§2) In addition, a lyophilized preparation made of sulfonates according to the prior art were partially degraded into carboxylic acid (CNS-7054) and released alcohol in both the accelerated and long-term experiments.

[2] = Long-term stability test (25° C., RH60%), change in degradation product CNS-7054; type: physicochemical; conditions: for CNS-7054 increase, long-term experiment (25° C., RH60%): in 3 months, sulfonate of the benzodiazepine derivative; for Change in CNS-7054, Long-term experiment (25° C., RH60%): 6 months, after packaging, degradation product CNS-7054
Procedure: as §1, §2

KM mice [3] = assay: 2*ED50 anesthesia pharmacodynamics experiment in KM mice (induction time, duration, walking time); type: in vivo; conditions: n=20, dosage 2*ED50, tail vein injection in 5 seconds
Procedure: KM mice, half male and half female, 20 mice in each group. […] The time of loss of the righting reflex in mice (induction time), recovery time (duration) and walking time were recorded.

patients = conditions: Phase II clinical trial of ICU sedation; cited from earlier work
KM mice [4] = assay: Hypnotic ED50 in KM mice by sequential method (disappearance of righting reflex); type: in vivo; conditions: male KM mice, tail vein injection in 5 seconds
Procedure: (§3) Sequential method was used to determine the hypnotic ED50 and LD50 in KM mice for the hydrochloride of the benzodiazepine derivative. Healthy and qualified male KM mice were selected, n=10−20. The drug was injected through the tail vein at a constant rate in 5 seconds. After preliminary pre-test, the approximate dosage that may cause hypnosis (or death) of the animals was found as an intermediate dosage in the formal experiment. A group interval of 0.8 was used, and 2-3 dosage groups were set up and down respectively. The formal experiment started with the administration from the intermediate dosage. When the animal was narcotized (or died), the dosage was reduced by one dose. If the animal was not narcotized (or died), the dosage was increased by one until 3-4 repetitions occurred. The ED50 value and LD50 value were measured with the disappearance of righting reflex or death as indicators. The therapeutic index (TI index=[…]) was calculated through LD50 and ED50 values.

KM mice [5] = assay: LD50 in KM mice by sequential method (death); type: in vivo; conditions: for TI (therapeutic index): KM mice, calculated through LD50 and ED50 values; for LD50 (95% confidence interval): male KM mice, tail vein injection in 5 seconds, death, sequential method
Procedure: as §3

Structure (SMILES): CCOC(=O)CCC1N=C(c2ccccn2)c2cc(Br)ccc2-n2c(C)cnc21.O=S(=O)(O)c1ccccc1 (stereo not shown)
- CNS-7054 increase, accelerated experiment (40° C., RH75%) [1]: Increased by 0.05%
- CNS-7054 increase, long-term experiment (25° C., RH60%) [2]: Increased by 0.03%

Structure (SMILES): CCOC(=O)CCC1N=C(c2ccccn2)c2cc(Br)ccc2-n2c(C)cnc21.Cc1ccc(S(=O)(=O)O)cc1 (stereo not shown)
- CNS-7054 increase, accelerated experiment (40° C., RH75%) [1]: Increased by 0.2%
- CNS-7054 increase, long-term experiment (25° C., RH60%) [2]: Increased by 0.1%

Structure (SMILES): COC(=O)CC[C@@H]1N=C(c2ccccn2)c2cc(Br)ccc2-n2c(C)cnc21.O=S(=O)(O)c1ccccc1
- CNS-7054 increase, accelerated experiment (40° C., RH75%) [1]: Increased by 0.07%
- CNS-7054 increase, long-term experiment (25° C., RH60%) [2]: Increased by 0.04%

Structure (SMILES): COC(=O)CCC1N=C(c2ccccn2)c2cc(Br)ccc2-n2c(C)cnc21.Cc1ccc(S(=O)(=O)O)cc1 (stereo not shown)
- CNS-7054 increase, accelerated experiment (40° C., RH75%) [1]: Increased by 0.1%
- CNS-7054 increase, long-term experiment (25° C., RH60%) [2]: Increased by 0.1%

Structure (SMILES): CCOC(=O)CCC1N=C(c2ccccn2)c2cc(Br)ccc2-n2c(C)cnc21.Cl (stereo not shown) [Ethyl, 1.7% glycine]
- Change in CNS-7054, Accelerated experiment (40° C., RH75%) [1]: Not increased
- Change in CNS-7054, Long-term experiment (25° C., RH60%) [2]: Not increased

Structure (SMILES): CCOC(=O)CCC1N=C(c2ccccn2)c2cc(Br)ccc2-n2c(C)cnc21.Cl (stereo not shown) [Ethyl, 2.8% glycine]
- Change in CNS-7054, Accelerated experiment (40° C., RH75%) [1]: Not increased
- Change in CNS-7054, Long-term experiment (25° C., RH60%) [2]: Not increased

Structure (SMILES): CCOC(=O)CCC1N=C(c2ccccn2)c2cc(Br)ccc2-n2c(C)cnc21.Cl (stereo not shown) [Ethyl, 4% alanine]
- Change in CNS-7054, Accelerated experiment (40° C., RH75%) [1]: Increased by 0.01%
- Change in CNS-7054, Long-term experiment (25° C., RH60%) [2]: Not increased

Structure (SMILES): CCOC(=O)CCC1N=C(c2ccccn2)c2cc(Br)ccc2-n2c(C)cnc21.Cl (stereo not shown) [Ethyl, 4% valine]
- Change in CNS-7054, Accelerated experiment (40° C., RH75%) [1]: Increased by 0.01%

Structure (SMILES): CCOC(=O)CCC1N=C(c2ccccn2)c2cc(Br)ccc2-n2c(C)cnc21.Cl (stereo not shown) [Ethyl, 4.5% glycine]
- Change in CNS-7054, Accelerated experiment (40° C., RH75%) [1]: Not increased
- Change in CNS-7054, Long-term experiment (25° C., RH60%) [2]: Not increased

Structure (SMILES): CCOC(=O)CCC1N=C(c2ccccn2)c2cc(Br)ccc2-n2c(C)cnc21.Cl (stereo not shown) [Ethyl, 5% alanine]
- Change in CNS-7054, Accelerated experiment (40° C., RH75%) [1]: Increased by 0.01%
- Change in CNS-7054, Long-term experiment (25° C., RH60%) [2]: Not increased

Structure (SMILES): CCOC(=O)CCC1N=C(c2ccccn2)c2cc(Br)ccc2-n2c(C)cnc21.Cl (stereo not shown) [Ethyl, None]
- Change in CNS-7054, Accelerated experiment (40° C., RH75%) [1]: Not increased
- Change in CNS-7054, Long-term experiment (25° C., RH60%) [2]: Not increased

Structure (SMILES): COC(=O)CCC1N=C(c2ccccn2)c2cc(Br)ccc2-n2c(C)cnc21.Cl (stereo not shown) [Methyl, 2% glycine]
- Change in CNS-7054, Accelerated experiment (40° C., RH75%) [1]: Not increased
- Change in CNS-7054, Long-term experiment (25° C., RH60%) [2]: Not increased

Structure (SMILES): COC(=O)CCC1N=C(c2ccccn2)c2cc(Br)ccc2-n2c(C)cnc21.Cl (stereo not shown) [Methyl, 3% glycine]
- Change in CNS-7054, Accelerated experiment (40° C., RH75%) [1]: Not increased
- Change in CNS-7054, Long-term experiment (25° C., RH60%) [2]: Not increased

Structure (SMILES): COC(=O)CCC1N=C(c2ccccn2)c2cc(Br)ccc2-n2c(C)cnc21.Cl (stereo not shown) [Methyl, 4% glycine]
- Change in CNS-7054, Accelerated experiment (40° C., RH75%) [1]: Increased by
- Change in CNS-7054, Long-term experiment (25° C., RH60%) [2]: Not increased

Structure (SMILES): COC(=O)CCC1N=C(c2ccccn2)c2cc(Br)ccc2-n2c(C)cnc21.Cl (stereo not shown) [Methyl, 4% valine]
- Change in CNS-7054, Accelerated experiment (40° C., RH75%) [1]: Increased by 0.01%
- Change in CNS-7054, Long-term experiment (25° C., RH60%) [2]: Not increased

Structure (SMILES): COC(=O)CCC1N=C(c2ccccn2)c2cc(Br)ccc2-n2c(C)cnc21.Cl (stereo not shown) [Methyl, 5% alanine]
- Change in CNS-7054, Accelerated experiment (40° C., RH75%) [1]: Increased by 0.01%
- Change in CNS-7054, Long-term experiment (25° C., RH60%) [2]: Not increased

Structure (SMILES): COC(=O)CCC1N=C(c2ccccn2)c2cc(Br)ccc2-n2c(C)cnc21.Cl (stereo not shown) [Methyl, None]
- Change in CNS-7054, Accelerated experiment (40° C., RH75%) [1]: Not increased

Structure (SMILES): COC(=O)CCC1N=C(c2ccccn2)c2cc(Br)ccc2-n2c(C)cnc21.O=S(=O)(O)c1ccccc1 (stereo not shown) [Positive control 1]
- Number of animals with duration time longer than 10 min (KM mice [3]): 9/20
- Number of animals with walking time longer than 1 min (KM mice [3]): 17/20
- Walking time (KM mice [3]): 514.95 ± 525.16 s
- duration time (recovery time) (KM mice [3]): 692.3 ± 399.15 s
- induction time (time of loss of the righting reflex) (KM mice [3]): 17.6 ± 1.93 s

Structure (SMILES): CCOC(=O)CCC1N=C(c2ccccn2)c2cc(Br)ccc2-n2c(C)cnc21.O=S(=O)(O)c1ccccc1 (stereo not shown) [Positive control 2]
- Number of animals with duration time longer than 10 min (KM mice [3]): 7/20
- Number of animals with walking time longer than 1 min (KM mice [3]): 10/20
- Walking time (KM mice [3]): 192.9 ± 268.98 s
- duration time (recovery time) (KM mice [3]): 443.75 ± 247.86 s
- induction time (time of loss of the righting reflex) (KM mice [3]): 17.1 ± 2.00 s

Structure (SMILES): CCOC(=O)CC[C@@H]1N=C(c2ccccn2)c2cc(Br)ccc2-n2c(C)cnc21.Cl [R is ethyl, hydrochloride, ethyl (S)-3-(8-bromo-1-methyl-6-(pyridin-2-yl)-4H-benzo[f]imidazo[1,2-a][1,4]diazepin-4-yl)propanoate hydrochloride]
- incidence of the animal anesthesia time of more than 10 minutes (KM mice [3]): 20%
- incidence of the animal walking time of more than 1 min (KM mice [3]): 15%

Structure (SMILES): COC(=O)CC[C@@H]1N=C(c2ccccn2)c2cc(Br)ccc2-n2c(C)cnc21 [Remimazolam]
- hemodynamics of the patients after receiving the drug (patients): unstable
- patients with plasma concentration higher than the normal range (patients): 10%

Structure (SMILES): COC(=O)CCC1N=C(c2ccccn2)c2cc(Br)ccc2-n2c(C)cnc21.O=S(=O)(O)c1ccccc1 (stereo not shown) [positive control 1]
- ED50 (95% confidence interval) (KM mice [4]): 40.64 mg/kg
- TI (therapeutic index) (KM mice [5]): 6.6
- LD50 (95% confidence interval) (KM mice [5]): 270.09 mg/kg

Structure (SMILES): CCOC(=O)CCC1N=C(c2ccccn2)c2cc(Br)ccc2-n2c(C)cnc21.O=S(=O)(O)c1ccccc1 (stereo not shown) [positive control 2]
- ED50 (95% confidence interval) (KM mice [4]): 15.62 mg/kg
- TI (therapeutic index) (KM mice [5]): 16.8
- LD50 (95% confidence interval) (KM mice [5]): 263.14 mg/kg
